Assay results: paper PMC8379015, “Resistance of Mycobacterium tuberculosis to indole 4-carboxamides occurs through alterations in drug metabolism and tryptophan biosynthesis” (Cell Chemical Biology, 2021)
Values after ≈ are worked out from the molar mass of the structure shown. Where two headings read alike, the source gives them in different places.

Columns and labels:
TrpAB α reaction = biological target: T1, TrpAB α reaction (Mycobacterium tuberculosis, UniProt P9WFX9+P9WFY1); assay: biochemical
T1 construct: His6 (N); made in house; host or cells: E. coli BL21(DE3)

Mtb = type: cell-based, Mycobacterium tuberculosis
TrpAB β reaction = biological target: T2, TrpAB β reaction (Mycobacterium tuberculosis, UniProt P9WFX9+P9WFY1); assay: biochemical; type: biochemical
T2 construct: His6 (N); made in house; host or cells: E. coli BL21(DE3)

M. tuberculosis H37Rv = assay: microbe, parasite or virus in culture; type: cell-based; conditions: Mycobacterium tuberculosis
TrpE = test system: TrpE; design: method as in Negatu et al., 2019; conditions: ref Negatu et al., 2019; read-out: IC50 TrpE (allosteric inhibition); cited from earlier work
M. smegmatis mc2155 = assay: microbe, parasite or virus in culture; type: cell-based, Mycobacterium smegmatis; conditions: for MIC: Mycolicibacterium smegmatis, MC2155, read-out: MIC vs M. smegmatis mc2155
M. bovis BCG = assay: microbe, parasite or virus in culture; type: cell-based, Mycobacterium bovis BCG
TrpAB WT = biological target: T3, TrpAB WT (Mycobacterium tuberculosis, UniProt P9WFX9+P9WFY1); type: biochemical
T3 construct: His6 (N); made in house; host or cells: E. coli BL21(DE3)

TrpE WT = biological target: T4, TrpE WT (Mycobacterium tuberculosis, UniProt P9WFX3); type: biochemical
T4 construct: His6 (N); made in house; host or cells: E. coli BL21(DE3)
T4 sequence (P9WFX3 1-516): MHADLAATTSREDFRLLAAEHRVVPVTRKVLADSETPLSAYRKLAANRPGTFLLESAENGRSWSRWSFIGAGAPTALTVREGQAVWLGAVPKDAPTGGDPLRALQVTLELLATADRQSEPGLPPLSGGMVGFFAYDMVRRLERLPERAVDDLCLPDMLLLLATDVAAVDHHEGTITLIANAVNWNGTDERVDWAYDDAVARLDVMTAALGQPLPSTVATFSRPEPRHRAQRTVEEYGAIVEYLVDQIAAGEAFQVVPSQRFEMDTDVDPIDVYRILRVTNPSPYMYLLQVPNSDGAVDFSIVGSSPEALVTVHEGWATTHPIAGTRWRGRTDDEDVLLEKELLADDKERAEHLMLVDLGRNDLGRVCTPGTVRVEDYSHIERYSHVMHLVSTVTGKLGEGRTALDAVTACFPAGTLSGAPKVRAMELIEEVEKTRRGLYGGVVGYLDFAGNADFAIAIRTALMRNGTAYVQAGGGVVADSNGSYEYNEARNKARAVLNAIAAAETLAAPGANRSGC

[1] = test system: intracellular Mtb H37Rv in J774 macrophages; type: cell-based, Mycobacterium tuberculosis
J774 macrophages = conditions: 24 hrs, CellTiter-Glo

T2 sequence (P9WFX9 whole entry): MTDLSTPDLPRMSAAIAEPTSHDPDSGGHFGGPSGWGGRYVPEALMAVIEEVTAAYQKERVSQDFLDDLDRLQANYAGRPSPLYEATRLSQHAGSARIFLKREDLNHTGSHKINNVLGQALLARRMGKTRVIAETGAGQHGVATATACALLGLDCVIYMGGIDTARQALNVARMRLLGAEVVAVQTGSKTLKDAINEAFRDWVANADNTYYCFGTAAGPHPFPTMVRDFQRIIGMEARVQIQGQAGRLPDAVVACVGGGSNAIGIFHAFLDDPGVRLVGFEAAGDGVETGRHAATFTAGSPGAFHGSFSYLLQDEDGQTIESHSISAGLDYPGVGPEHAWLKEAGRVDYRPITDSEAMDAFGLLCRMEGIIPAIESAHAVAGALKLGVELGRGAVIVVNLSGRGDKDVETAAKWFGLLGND
T2 sequence (P9WFY1 whole entry): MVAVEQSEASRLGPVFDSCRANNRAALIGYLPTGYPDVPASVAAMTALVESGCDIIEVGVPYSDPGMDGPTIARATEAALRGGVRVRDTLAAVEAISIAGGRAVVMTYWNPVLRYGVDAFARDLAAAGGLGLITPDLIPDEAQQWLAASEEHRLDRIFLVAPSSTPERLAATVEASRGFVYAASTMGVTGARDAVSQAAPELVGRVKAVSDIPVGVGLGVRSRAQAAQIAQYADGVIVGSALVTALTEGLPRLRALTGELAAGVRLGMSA
T1 sequence (P9WFX9 whole entry): as the sequence (P9WFX9 whole entry) above
T1 sequence (P9WFY1 whole entry): as the sequence (P9WFY1 whole entry) above
T3 sequence (P9WFX9 whole entry): as the sequence (P9WFX9 whole entry) above
T3 sequence (P9WFY1 whole entry): as the sequence (P9WFY1 whole entry) above

## Nc1cccc2[nH]ccc12 [4-AI, 4-aminoindole, reference compound]
TrpAB α reaction
  IC50: 631 ± 174 µM
Mtb
  increase of MIC on supplementation: 4- to 16 fold
TrpAB β reaction
  IC50: 649.4 ± 2.5 µM
M. tuberculosis H37Rv
  MIC: 4.68 µM (≈ 0.619 µg/mL)
M. tuberculosis H37Rv; read-out: MIC against Mtb
  MIC: 4.68 µM (≈ 0.619 µg/mL)

## Nc1cccc2[nH]cc(C[C@H](N)C(=O)O)c12 [4-aTrp, 4-amino-L-tryptophan]
M. tuberculosis H37Rv; read-out: MIC against Mtb
  MIC: > 100 µM

## N[C@@H](Cc1c[nH]c2ccc(F)cc12)C(=O)O [5-fluorotryptophan]
TrpE
  IC50: 4 µM

## O=C(O)c1ccc(OCC(F)(F)F)nc1 [C1-COOH, 6-(2,2,2-trifluoroethoxy)nicotinic acid]
M. tuberculosis H37Rv
  MIC: 50 µM (≈ 11.1 µg/mL)

## O=C(COc1ccccc1)Nc1cccc2[nH]ccc12 [C2, N-(1H-indol-4-yl)-2-phenoxyacetamide]
M. smegmatis mc2155
  MIC: > 100 µM

## O=C(O)COc1ccccc1 [C2-COOH, 2-phenoxyacetic acid]
M. tuberculosis H37Rv
  MIC: > 100 µM

## O=C(Nc1cccc2[nH]ccc12)C1CCCCC1 [C3, N-(1H-indol-4-yl)cyclohexanecarboxamide]
M. bovis BCG
  MIC vs M. bovis BCG: 50 µM (≈ 12.1 µg/mL)
M. bovis BCG; Mycobacterium tuberculosis variant bovis BCG, BCG, read-out: MIC vs M. bovis BCG
  MIC: > 100 µM
M. smegmatis mc2155
  MIC: > 100 µM
M. tuberculosis H37Rv; read-out: MIC
  MIC: 12.5 µM (≈ 3.03 µg/mL)

## O=C(O)C1CCCCC1 [C3-COOH, cyclohexanecarboxylic acid]
M. tuberculosis H37Rv
  MIC: > 100 µM

## O=C(Nc1cccc2[nH]ccc12)c1ccc(OCC(F)(F)F)cn1 [C4, N-(1H-indol-4-yl)-5-(2,2,2-trifluoroethoxy)picolinamide]
M. smegmatis mc2155
  MIC: > 100 µM

## O=C(O)c1ccc(OCC(F)(F)F)cn1 [C4-COOH, 5-(2,2,2-trifluoroethoxy)picolinic acid]
M. tuberculosis H37Rv
  MIC: > 100 µM

## CNS(=O)(=O)c1ccc2c(c1)CCN2C(=O)c1ccc(C)s1 [C5, reference compound]
TrpAB α reaction
  IC50: 0.1 ± 0.06 µM
Mtb
  potency with exogenous indole or L-Trp: significantly attenuated
TrpAB β reaction
  IC50: 0.37 ± 0.07 µM
M. tuberculosis H37Rv; read-out: MIC
  MIC: 0.39 µM (≈ 0.131 µg/mL)

## O=C(Nc1ccc2[nH]ccc2c1)c1ccc(OCC(F)(F)F)nc1 [C6, N-(1H-indol-5-yl)-6-(2,2,2-trifluoroethoxy)nicotinamide]
M. tuberculosis H37Rv
  MIC: 50 µM (≈ 16.8 µg/mL)

## O=C(Nc1ccc2cc[nH]c2c1)c1ccc(OCC(F)(F)F)nc1 [C7, N-(1H-indol-6-yl)-6-(2,2,2-trifluoroethoxy)nicotinamide]
M. tuberculosis H37Rv
  MIC: 50 µM (≈ 16.8 µg/mL)

## O=C(Nc1cccc2cc[nH]c12)c1ccc(OCC(F)(F)F)nc1 [C8, N-(1H-indol-7-yl)-6-(2,2,2-trifluoroethoxy)nicotinamide]
M. tuberculosis H37Rv
  MIC: 9.4 µM (≈ 3.15 µg/mL)

## Cn1ccc2c(NC(=O)c3ccc(OCC(F)(F)F)nc3)cccc21 [C9, N-(1-methyl-1H-indol-4-yl)-6-(2,2,2-trifluoroethoxy)nicotinamide]
M. tuberculosis H37Rv
  MIC: 50 µM (≈ 17.5 µg/mL)

## FC(F)(F)COc1ccc(CNc2cccc3[nH]ccc23)cn1 [C10, N-((6-(2,2,2-trifluoroethoxy)pyridin-3-yl)methyl)-1H-indol-4-amine]
M. tuberculosis H37Rv
  MIC: 50 µM (≈ 16.1 µg/mL)

## O=C(Nc1ccc(OCC(F)(F)F)nc1)c1cccc2[nH]ccc12 [C11, N-(6-(2,2,2-trifluoroethoxy)pyridine-3-yl)-1H-indole-4-carboxamide]
M. tuberculosis H37Rv
  MIC: 50 µM (≈ 16.8 µg/mL)

## O=C(Nc1cccc2c1CCN2)c1ccc(OCC(F)(F)F)nc1 [C12, N-(indolin-4-yl)-6-(2,2,2-trifluoroethoxy)nicotinamide]
M. tuberculosis H37Rv
  MIC: 50 µM (≈ 16.9 µg/mL)

## CN(C(=O)c1ccc(OCC(F)(F)F)nc1)c1cccc2[nH]ccc12 [C13, N-(1H-indol-4-yl)-N-methyl-6-(2,2,2-trifluoroethoxy)nicotinamide]
M. tuberculosis H37Rv; read-out: MIC
  MIC: 25 µM (≈ 8.73 µg/mL)

## O=C(Nc1cccc2[nH]cnc12)c1ccc(OCC(F)(F)F)cn1 [C14, N-(1H-benzo[d]imidazol-4-yl)-5-(2,2,2-trifluoroethoxy)picolinamide]
M. tuberculosis H37Rv; read-out: MIC
  MIC: 50 µM (≈ 16.8 µg/mL)

## O=C(Nc1ccnc2[nH]ccc12)c1ccc(OCC(F)(F)F)cn1 [C15, N-(1H-pyrrolo[2,3-b]pyridin-4-yl)-5-(2,2,2-trifluoroethoxy)picolinamide]
M. tuberculosis H37Rv; read-out: MIC
  MIC: 50 µM (≈ 16.8 µg/mL)

## O=C(Nc1cccc2[nH]ccc12)c1ccc(OCC(F)(F)F)nn1 [C16, N-(1H-indol-4-yl)-6-(2,2,2-trifluoroethoxy)pyridazine-3-carboxamide]
M. tuberculosis H37Rv; read-out: MIC
  MIC: 2.3 µM (≈ 0.773 µg/mL)

## Cc1ccc(OCC(=O)Nc2cccc3[nH]ccc23)cc1 [C17, N-(1H-indol-4-yl)-2-(p-tolyloxy)acetamide]
M. tuberculosis H37Rv; read-out: MIC
  MIC: 1.56 µM (≈ 0.437 µg/mL)

## O=C(COCC1CC1)Nc1cccc2[nH]ccc12 [C18, 2-(cyclopropylmethoxy)-N-(1H-indol-4-yl)acetamide]
M. tuberculosis H37Rv; read-out: MIC
  MIC: 3.13 µM (≈ 0.765 µg/mL)

## O=C(Nc1cccc2[nH]ccc12)[C@H]1C[C@@H](Oc2ccccc2)C1 [C19, (1s,3s)-N-(1H-indol-4-yl)-3-phenoxycyclobutane-1-carboxamide]
M. tuberculosis H37Rv; read-out: MIC
  MIC: 3.13 µM (≈ 0.959 µg/mL)

## CN(CC(F)(F)F)c1ccc(C(=O)Nc2cccc3[nH]ccc23)cn1 [C20, N-(1H-indol-4-yl)-6-(methyl(2,2,2-trifluoroethyl)amino)nicotinamide]
M. tuberculosis H37Rv; read-out: MIC
  MIC: 4.7 µM (≈ 1.64 µg/mL)

## Cc1ccc(C(=O)Nc2cccc3[nH]ccc23)o1 [C21, N-(1H-indol-4-yl)-5-methylfuran-2-carboxamide]
M. tuberculosis H37Rv; read-out: MIC
  MIC: 6.25 µM (≈ 1.5 µg/mL)

## O=P(O)(O)OC[C@@H](O)[C@H](O)c1c[nH]c2ccccc12 [IGP, indole-3-glycerol phosphate]
TrpAB WT; read-out: apparent KM IGP
  Km: 76.9 ± 1.1 µM

## NNC(=O)c1ccncc1 [INH, isoniazid, reference compound]
M. tuberculosis H37Rv; read-out: MIC
  MIC: 0.16 µM (≈ 0.0219 µg/mL)

## N[C@@H](CO)C(=O)O [L-Ser, L-serine]
TrpAB β reaction; read-out: KM L-Ser of TrpAB β-half reaction
  Km: 2900 ± 300 µM
TrpAB WT; read-out: apparent KM L-Ser
  Km: 550 ± 230 µM

## N-(1H-indol-4-yl)-6-(2,2,2-trifluoroethoxy)nicotinamide [C1]
TrpE WT
  IC50: 242 ± 53 µM
M. smegmatis mc2155
  MIC vs M. smegmatis mc2155: > 100 µM
[1]
  reduction in intracellular Mtb titer: 1.5 log
J774 macrophages
  toxicity to J774 macrophages: not toxic
